Laboratory results taken from ChEMBL document CHEMBL1121588, “Studies on anticoccidial agents. 13. Synthesis and anticoccidial activity of nitropyridine-2- and -3-sulfonamides and derivatives” (1980).

test system: Eimeria tenella; test: Anticoccidial activity against Eimeria tenella using amprolium resistant strain at a concentration of 0.015% drug in feed; assay type: functional

Compared with CCCCCCCC(=O)NS(=O)(=O)c1cncc([N+](=O)[O-])c1, CCCCCCCCNS(=O)(=O)c1cncc([N+](=O)[O-])c1 is lower in Activity: 187 for the first, 126 for the second.

Compared with NS(=O)(=O)c1ncccc1[N+](=O)[O-], NS(=O)(=O)c1cccnc1[N+](=O)[O-] is higher in Activity: 55 for the first, 144 for the second.

First: O=[N+]([O-])c1cncc(S(=O)(=O)NCc2ccccc2)c1
Second: O=[N+]([O-])c1cncc(S(=O)(=O)Nc2ccccc2)c1
The Activity of the first is higher: 168 for the first, 86 for the second.

Going from NS(=O)(=O)c1cccc([N+](=O)[O-])n1 to NS(=O)(=O)c1ccc([N+](=O)[O-])cn1, the Activity falls from 120 to 32.

Going from CCOCCNS(=O)(=O)c1cncc([N+](=O)[O-])c1 to CCNS(=O)(=O)c1cncc([N+](=O)[O-])c1, the Activity falls from 192 to 190.

Going from O=[N+]([O-])c1cncc(S(=O)(=O)NCCO)c1 to CNS(=O)(=O)c1cncc([N+](=O)[O-])c1, the Activity rises from 120 to 195.

Compared with NS(=O)(=O)c1cnccc1[N+](=O)[O-], NS(=O)(=O)c1ccc([N+](=O)[O-])nc1 is lower in Activity: 144 for the first, 120 for the second.

First: CC(=O)NS(=O)(=O)c1cncc([N+](=O)[O-])c1
Second: CC(C)(C)C(=O)NS(=O)(=O)c1cncc([N+](=O)[O-])c1
The Activity of the first is higher: 186 for the first, 122 for the second.

First: NS(=O)(=O)c1cncc([N+](=O)[O-])c1
Second: CN(C)S(=O)(=O)c1cncc([N+](=O)[O-])c1
The Activity of the first is higher: 194 for the first, 175 for the second.

First: CCCCN(CC)S(=O)(=O)c1cncc([N+](=O)[O-])c1
Second: CCOCCN(CC)S(=O)(=O)c1cncc([N+](=O)[O-])c1
The Activity of the first is lower: 175 for the first, 178 for the second.

Compared with NC(=O)c1cncc([N+](=O)[O-])c1, NS(=O)(=O)c1cc([N+](=O)[O-])ccn1 is lower in Activity: 198 for the first, 107 for the second.

Compared with NS(=O)(=O)c1cc[n+]([O-])cc1, NS(=O)(=O)c1ccc[n+]([O-])c1 is higher in Activity: 120 for the first, 160 for the second.

First: CC(C)OCCCNS(=O)(=O)c1cncc([N+](=O)[O-])c1
Second: CCCc1ncc(C[n+]2ccccc2C)c(N)n1.[Cl-]
The Activity of the first is higher: 193 for the first, 95 for the second.

Work on NS(=O)(=O)c1cccc[n+]1[O-] yielded an Activity of 183.

test system: Eimeria tenella; test: Anticoccidial activity against Eimeria tenella using amprolium resistant strain at a concentration of 0.00175% drug in feed; assay type: functional

With NS(=O)(=O)c1cncc([N+](=O)[O-])c1 the Activity was 158.

test system: Eimeria tenella; test: Anticoccidial activity against Eimeria tenella using amprolium resistant strain at a concentration of 0.007% drug in feed; assay type: functional

Compared with NS(=O)(=O)c1cncc([N+](=O)[O-])c1, NC(=O)c1cncc([N+](=O)[O-])c1 is lower in Activity: 195 for the first, 186 for the second.

test system: Eimeria tenella; test: Anticoccidial activity against Eimeria tenella using amprolium resistant strain at a concentration of 0.0035% drug in feed; assay type: functional

Compared with NS(=O)(=O)c1cncc([N+](=O)[O-])c1, NC(=O)c1cncc([N+](=O)[O-])c1 is lower in Activity: 194 for the first, 158 for the second.
